Key:
Neprilysin = target: T1, Neprilysin (Rattus norvegicus, UniProt P07861); assay: Compound was measured for the inhibition of neutral endopeptidase 24.11(NEP).
T1 sequence (P07861 whole entry): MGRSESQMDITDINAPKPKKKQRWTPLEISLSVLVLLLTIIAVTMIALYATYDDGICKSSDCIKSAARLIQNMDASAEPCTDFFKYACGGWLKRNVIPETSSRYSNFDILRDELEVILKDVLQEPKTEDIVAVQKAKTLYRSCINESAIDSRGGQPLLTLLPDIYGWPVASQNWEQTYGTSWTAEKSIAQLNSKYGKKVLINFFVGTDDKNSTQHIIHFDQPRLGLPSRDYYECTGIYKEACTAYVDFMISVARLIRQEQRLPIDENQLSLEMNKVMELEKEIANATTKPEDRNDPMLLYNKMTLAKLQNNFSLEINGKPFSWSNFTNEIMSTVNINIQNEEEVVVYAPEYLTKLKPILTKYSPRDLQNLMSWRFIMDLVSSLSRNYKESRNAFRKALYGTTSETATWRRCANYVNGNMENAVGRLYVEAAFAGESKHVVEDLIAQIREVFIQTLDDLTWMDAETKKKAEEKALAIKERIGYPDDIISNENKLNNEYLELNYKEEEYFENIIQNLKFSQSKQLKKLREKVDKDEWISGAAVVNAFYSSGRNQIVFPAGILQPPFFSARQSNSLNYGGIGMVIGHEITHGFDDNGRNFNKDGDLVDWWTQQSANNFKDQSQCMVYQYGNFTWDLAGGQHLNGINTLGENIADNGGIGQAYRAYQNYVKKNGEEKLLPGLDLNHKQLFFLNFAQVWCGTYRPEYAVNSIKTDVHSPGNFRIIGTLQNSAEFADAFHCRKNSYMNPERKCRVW

[1] = target: T2, Angiotensin-converting enzyme (Rattus norvegicus, UniProt P47820); assay: Compound was measured for the inhibition of Angiotensin I converting enzyme
T2 sequence (P47820 whole entry): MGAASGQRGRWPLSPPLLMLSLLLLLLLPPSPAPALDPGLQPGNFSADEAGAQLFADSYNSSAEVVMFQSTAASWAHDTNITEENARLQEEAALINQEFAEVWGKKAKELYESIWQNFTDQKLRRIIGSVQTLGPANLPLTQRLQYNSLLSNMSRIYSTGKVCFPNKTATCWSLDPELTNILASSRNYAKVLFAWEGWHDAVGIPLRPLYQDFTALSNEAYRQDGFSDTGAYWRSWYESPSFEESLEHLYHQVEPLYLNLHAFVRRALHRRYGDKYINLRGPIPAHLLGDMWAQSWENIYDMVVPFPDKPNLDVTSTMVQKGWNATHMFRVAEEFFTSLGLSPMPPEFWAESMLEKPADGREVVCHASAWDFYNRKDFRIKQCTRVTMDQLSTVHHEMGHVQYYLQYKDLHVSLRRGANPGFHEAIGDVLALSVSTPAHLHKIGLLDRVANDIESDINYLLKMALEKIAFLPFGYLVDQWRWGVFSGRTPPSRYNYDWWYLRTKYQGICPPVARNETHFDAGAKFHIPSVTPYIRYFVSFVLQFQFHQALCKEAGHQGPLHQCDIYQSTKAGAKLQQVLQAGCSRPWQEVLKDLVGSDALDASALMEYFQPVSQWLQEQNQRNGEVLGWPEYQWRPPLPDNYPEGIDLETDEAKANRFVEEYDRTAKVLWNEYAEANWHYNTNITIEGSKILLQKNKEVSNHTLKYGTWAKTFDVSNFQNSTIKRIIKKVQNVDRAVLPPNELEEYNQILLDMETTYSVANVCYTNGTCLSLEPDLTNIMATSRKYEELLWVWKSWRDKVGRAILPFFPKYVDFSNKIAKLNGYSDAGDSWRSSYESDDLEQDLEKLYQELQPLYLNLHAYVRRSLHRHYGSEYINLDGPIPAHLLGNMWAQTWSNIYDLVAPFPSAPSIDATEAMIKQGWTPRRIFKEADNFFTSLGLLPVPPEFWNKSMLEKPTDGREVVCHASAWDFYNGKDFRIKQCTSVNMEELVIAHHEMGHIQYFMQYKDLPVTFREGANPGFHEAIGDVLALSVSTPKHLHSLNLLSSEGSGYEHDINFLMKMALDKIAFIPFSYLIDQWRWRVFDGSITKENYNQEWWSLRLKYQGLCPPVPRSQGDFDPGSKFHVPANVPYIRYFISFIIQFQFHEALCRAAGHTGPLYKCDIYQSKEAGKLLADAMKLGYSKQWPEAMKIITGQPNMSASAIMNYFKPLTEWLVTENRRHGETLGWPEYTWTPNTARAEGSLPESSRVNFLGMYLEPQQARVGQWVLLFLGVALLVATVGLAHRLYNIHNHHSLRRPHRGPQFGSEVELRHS

Row | IC50 (Neprilysin) | IC50 [1] | SMILES
1 | 0.09 µM | 0.0025 µM | CS(=O)(=O)N[C@@H](CCCCN)C(=O)N[C@@H](Cc1ccccc1)P(=O)(O)CC1(C(=O)N[C@@H](Cc2c[nH]c3ccccc23)C(=O)O)CCCC1
2 | 0.055 µM | 0.0015 µM | O=C(N[C@@H](Cc1ccccc1)P(=O)(O)CC1(C(=O)N[C@@H](Cc2c[nH]c3ccccc23)C(=O)O)CCCC1)c1ccc([N+](=O)[O-])cc1

Reference: ChEMBL document CHEMBL1129117 (Bioorg Med Chem Lett, 1996)
